Data taken from patent publication US11938189B2, “Compositions and methods for stabilizing protein-containing formulations” (Genentech, Inc., priority 2010, dated 2024).

Key:
[1] = in water at 20-25° C., cited from earlier work; for CMC Value (% w/v): cells printed without %
[2] = test system: anti-CD11a monoclonal antibody; assay: Oxidation of Met256 on storage in surfactant-containing antibody solution; format: physicochemical; conditions: 0.1% w/v surfactant, pH 6.0, stored at 5° C. or 40° C. for 2 or 4 weeks; FIG. 15
Procedure: In a second experiment, oxidation of the Met256 amino acid residue in an anti-CD11a monoclonal antibody in solutions containing either n-decyl-β-D-glucopyranoside, n-octyl-β-D-glucopyranoside, or polysorbate 20 was evaluated. For this purpose, 3 ml of the buffered antibody solution (pH 6.0) containing 0.1% w/v of the surfactant was stored in 6 cc vials at either 5° C. or 40° C. for a period of either 2 or 4 weeks.

[3] = test system: anti-MUC16 monoclonal antibody; assay: Shaking-induced aggregation (150 rpm), percent monomer by size-exclusion chromatography; format: physicochemical; conditions: surfactant at one half of its CMC; shaking 150 rpm, 37° C., 64 hours; FIG. 1
Procedure: In this set of studies, a buffered solution (20 mM sodium phosphate buffer, pH 7.4) of monoclonal antibody was subjected to shaking on an orbital shaker at 150 rpm, at a controlled temperature of 37° C. These studies were carried out using a 3 ml solution fill of the antibody solution in a 6 cc glass vial. Samples were withdrawn at regular intervals and analyzed for percent monomer using size-exclusion chromatography. Various surfactants of the class of alkylglycosides were evaluated for their effectiveness to prevent protein aggregation during shaking. The surfactants were used at concentrations below their respective critical micelle concentration (CMC) or above their respective CMC.
The surfactants were employed at one half the concentration of their respective CMC values, i.e., 1.1 mM (0.035% w/v) n-decyl-β-D-glucopyranoside, 9 mM (0.24%) n-octyl-β-D-glucopyranoside and 0.04 mM (0.0035%) polysorbate 20.

[4] = test system: Humanized anti-oxidized LDL monoclonal antibody; assay: Light-induced oxidation of tryptophan residues (LC/MS/MS tryptic peptide map); format: physicochemical; conditions: Light 24 hrs
Procedure: MAb samples and light treatment: Humanized anti-oxidized LDL monoclonal antibody, was produced at Genentech, Inc. from a CHO cell line. Three independent samples were prepared for photostability studies: 1) control sample, vial wrapped with aluminum foil; 2) test sample, vial light exposed (unwrapped); 3) test sample, vial light exposed (unwrapped) containing the specified non-ionic surfactant. Both control & light exposed samples were kept in a light box for 24 hrs. Light exposure following ICH guideline with following setting for a Atlas SUNTEST CPS+Light Box: Irradiance level=250 watts/square meter; Time set for 24 hours; Total UV dose=538 watt-hours/square meter; Total visible dose=1,320,000 lux-hours.
LC/MS/MS of tryptic MAb peptide map: Samples were digested with trypsin after reduction and alkylation. The resulting peptides were analyzed with a Thermo LTQ-Orbitrap mass spectrometer coupled with an Agilent 1200 capillary HPLC system. HPLC column: Jupiter 5 um C18 250×1.0 mm, flow rate: 70 uL/min, column oven temperature: 55° C. Solvent A: 0.1% TFA in water, B: 0.09% TFA in 90% ACN. Orbitrap setting: MS resolution 60000, MS/MS collected in data dependent mode, using LTQ.
The effect of light, and the protective effect of non-ionic surfactants, on the oxidation of tryptophan residues on an anti-oxidized LDL antibody was determined.

SMILES	CMC Value [1]	CMC Value (w/v) [1]	further results
OC[C@H]1O[C@H](O[C@H]2[C@H](O)[C@@H](O)[C@H](OCCC3CCCCC3)O[C@@H]2CO)[C@H](O)[C@@H](O)[C@@H]1O [2-cyclohexyl-ethyl-β-D-maltoside]	120 mM	5.4% w/v	–
CC(CCO[C@@H]1O[C@H](CO)[C@@H](O)[C@H](O)[C@H]1O)C1CCCCC1 (stereo partly drawn) [3-cyclohexyl-1-butyl-β-D-glucoside]	1.8 mM	0.058% w/v	–
OC[C@H]1O[C@@H](OCCCC2CCCCC2)[C@H](O)[C@@H](O)[C@@H]1O [3-cyclohexyl-1-propyl-β-D-glucoside]	28 mM	0.86% w/v	–
OC[C@H]1O[C@H](O[C@H]2[C@H](O)[C@@H](O)[C@H](OCCCC3CCCCC3)O[C@@H]2CO)[C@H](O)[C@@H](O)[C@@H]1O [3-cyclohexyl-propyl-β-D-maltoside]	34.5 mM	1.6% w/v	–
OC[C@H]1O[C@H](O[C@H]2[C@H](O)[C@@H](O)[C@H](OCCCCC3CCCCC3)O[C@@H]2CO)[C@H](O)[C@@H](O)[C@@H]1O [4-cyclohexyl-butyl-β-D-maltoside]	7.6 mM	0.37% w/v	–
OC[C@H]1O[C@H](O[C@H]2[C@H](O)[C@@H](O)[C@H](OCCCCCC3CCCCC3)O[C@@H]2CO)[C@H](O)[C@@H](O)[C@@H]1O [5-cyclohexyl-pentyl-β-D-maltoside]	2.4 mM	0.12% w/v	–
OC[C@H]1O[C@H](O[C@H]2[C@H](O)[C@@H](O)[C@H](OCC3CCCCC3)O[C@@H]2CO)[C@H](O)[C@@H](O)[C@@H]1O [cyclohexyl-methyl-β-D-maltoside]	340 mM	15% w/v	–
CCCCCCCCCCO[C@@H]1O[C@H](CO)[C@@H](O)[C@H](O)[C@H]1O [n-decyl-β-D-glucopyranoside]	2.2 mM	0.07% w/v	increase in percent oxidized Met256 vs initial sample [2]: no significant increase; prevention of shaking-induced loss of percent monomer [3]: effective in preventing loss of monomer
CCCCCCCCCCO[C@@H]1O[C@H](CO)[C@@H](O[C@H]2O[C@H](CO)[C@@H](O)[C@H](O)[C@H]2O)[C@H](O)[C@H]1O [n-decyl-β-D-maltopyranoside]	1.8 mM	0.087% w/v	–
CCCCCCCCCCCCO[C@@H]1O[C@H](CO)[C@@H](O)[C@H](O)[C@H]1O [n-dodecyl-β-D-glucopyranoside, reference compound]	0.19 mM	–	CMC Value (% w/v) [1]: 0.0066 % w/v; % Oxidized Trp33 ([4]; 0.03 mM surfactant): 0.4%; % Oxidized Trp92 ([4]; 0.03 mM surfactant): 8.9%
CCCCCCCCCCCCO[C@@H]1O[C@H](CO)[C@@H](O[C@H]2O[C@H](CO)[C@@H](O)[C@H](O)[C@H]2O)[C@H](O)[C@H]1O [n-dodecyl-β-D-maltopyranoside, reference compound]	0.17 mM	–	CMC Value (% w/v) [1]: 0.0087 % w/v; % Oxidized Trp33 ([4]; 0.03 mM surfactant): 0.0%; % Oxidized Trp92 ([4]; 0.03 mM surfactant): 10.6%; % Oxidized Trp33 ([4]; 0.39 mM surfactant): 0.1%; % Oxidized Trp92 ([4]; 0.39 mM surfactant): 2.7%
CCCCCCCO[C@@H]1O[C@H](CO)[C@@H](O)[C@H](O)[C@H]1O [n-heptyl-β-D-glucopyranoside]	70 mM	1.9% w/v	–
CCCCCCO[C@@H]1O[C@H](CO)[C@@H](O)[C@H](O)[C@H]1O [n-hexyl-β-D-glucopyranoside]	250 mM	6.6% w/v	% Oxidized Trp33 ([4]; 0.39 mM surfactant): 0.3%; % Oxidized Trp92 ([4]; 0.39 mM surfactant): 4.9%; % Oxidized Trp33 ([4]; 300 mM surfactant): 0.0%; % Oxidized Trp92 ([4]; 300 mM surfactant): 1.6%
CCCCCCO[C@@H]1O[C@H](CO)[C@@H](O[C@H]2O[C@H](CO)[C@@H](O)[C@H](O)[C@H]2O)[C@H](O)[C@H]1O [n-hexyl-β-D-maltopyranoside]	210 mM	8.9% w/v	% Oxidized Trp33 ([4]; 0.39 mM surfactant): 0.3%; % Oxidized Trp92 ([4]; 0.39 mM surfactant): 5.7%; % Oxidized Trp33 ([4]; 300 mM surfactant): 0.0%; % Oxidized Trp92 ([4]; 300 mM surfactant): 2.2%
CCCCCCCCCO[C@@H]1O[C@H](CO)[C@@H](O)[C@H](O)[C@H]1O [n-nonyl-β-D-glucopyranoside]	6.5 mM	0.2% w/v	–
CCCCCCCCCO[C@@H]1O[C@H](CO)[C@@H](O[C@H]2O[C@H](CO)[C@@H](O)[C@H](O)[C@H]2O)[C@H](O)[C@H]1O [n-nonyl-β-D-maltopyranoside]	6 mM	0.28% w/v	–
CCCCCCCCO[C@@H]1O[C@H](CO)[C@@H](O[C@H]2O[C@H](CO)[C@@H](O)[C@H](O)[C@H]2O)[C@H](O)[C@H]1O [n-octyl-β-D-maltopyranoside]	19.5 mM	0.89% w/v	–
